Assay results from US20240391923A1, “METHIONINE ADENOSYLTRANSFERASE 2A INHIBITOR FOR TREATING MTAP DELETION-TYPE CANCER” (SUZHOU GENHOUSE BIO CO., LTD., priority 2022, published 2024).
Like-named read-outs stand apart in the source and are kept apart here.

Experiments:
[1] = system: SDMA in HCT116-MTAP-knockout cell line; assay: Cell symmetric dimethylarginine (SDMA) test, In-cell Western, HCT116-MTAP-knockout; format: cell-based; conditions: Homo sapiens, 96 h
[2] = system: SDMA in human colon cancer cell line HCT116; assay: Cell symmetric dimethylarginine (SDMA) test, In-cell Western, HCT116 (MTAP wild-type); format: cell-based; conditions: Homo sapiens, HCT-116, 96 h
How it was run: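 SDMA level, an indirect readout of cellular MAT2A inhibition, measured by In-cell Western as background-subtracted 800/700 nm signal against DRAQ5. Cells exposed 4 days to six 1:4-diluted doses from 6 μM; inhibition relative to DMSO, IC50 from sigmoidal fit.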

DOHH-2 cell strain = assay: Tumor cell proliferation inhibition assay (CellTiter-Glo), DOHH-2; format: cell-based; conditions: Homo sapiens, 120 h, DOHH-2 cells, 5-day treatment
Experimental: After the HCT116-MTAP-knockout (−/−) cell strain, the HCT116-MTAP wild-type(+/+)-cell strain, the DOHH-2 cell strain, or the Hut-78 cell strain was treated with the test compound for 5 days, the ATP level was measured using a CellTiter-Glo kit of Promega to evaluate the inhibition of the test compound against the growth of the tumor cell strain.
In the present application, the HCT116-MTAP-knockout (−/−) cell strain, the HCT116-MTAP wild-type (+/+)-cell strain, the DOHH-2 cell strain, or the Hut-78 cell strain was seeded into a 96-well cell culture plate at an appropriate cell density. After 24 h, the cells were treated using the test compounds diluted 1:3 fold at the highest concentration of 10 μM for 10 gradients, and a DMSO treatment group was set up separately. The cells were cultured in a 37° C./5% CO2 incubator for 5 days.

[3] = molecular target: MAT2A recombinant protein (Homo sapiens, UniProt P31153); assay: MAT2A inhibitory activity (malachite green colorimetric enzyme assay); format: biochemical
How it was run: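 Compounds tested over 10 points, 3-fold dilutions, top final concentration 1000 nM. Enzyme reaction: MAT2A, L-methionine, ATP, room temperature, 60 min, in HEPES pH 7.5 buffer with KCl, MgCl2 and DTT; inorganic phosphate read colorimetrically (malachite green, A630). Inhibition vs log concentration fitted for IC50.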

[4] = system: HCT116-MTAP-knockout (−/−) cell strain; assay: Tumor cell proliferation inhibition assay (CellTiter-Glo), HCT116-MTAP-knockout (-/-); format: cell-based; conditions: Homo sapiens, 120 h, HCT116-MTAP-knockout (−/−) cells, 5-day treatment
How it was run: (§1)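 Cells were seeded, left 24 h, then exposed to test compounds in a 10-point, 1:3 dilution series from 10 μM top concentration alongside a DMSO group. After 5 days at 37° C./5% CO2, growth inhibition was judged from ATP level by CellTiter-Glo luminescence.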

[5] = system: HCT116-MTAP wild-type (+/+)-cell strain; assay: Tumor cell proliferation inhibition assay (CellTiter-Glo), HCT116-MTAP wild-type (+/+); format: cell-based; conditions: Homo sapiens, 120 h, HCT116-MTAP wild-type (+/+) cells, 5-day treatment
How it was run: as §1

Hut-78 cell strain = assay: Tumor cell proliferation inhibition assay (CellTiter-Glo), Hut-78; format: cell-based; conditions: Hut-78 cells, 5-day treatment
How it was run: as §1

[6] = Pharmacokinetic test in mice (IV and PO); format: in vivo; conditions: mouse, plasma, BALB/c mice; for half-life: read-out: T½ (converted)
[7] = IC50 score class, read-out: Cell 96 h SDMA Inhibition (HCT116-MTAP−/−) (score)
[8] = read-out: Cell 96 h SDMA Inhibition (HCT116-MTAP−/−)
[9] = IC50 score class, read-out: Cell 96 h SDMA Inhibition (HCT116-MTAP+/+) (score)
[10] = IC50 score, read-out: Tumor cell 5-day relative growth inhibition (DOHH-2) (nM), score
[11] = IC50 value, read-out: Tumor cell 5-day relative growth inhibition (DOHH-2)
[12] = read-out: Cell 96 h SDMA inhibition (HCT116-MTAP+/+)
[13] = IC50 score class, read-out: MAT2A Inhibition (score)
[14] = IC50 score, read-out: Tumor cell 5-day relative growth inhibition (HCT116-MTAP−/−) (nM), score
[15] = IC50 value, read-out: Tumor cell 5-day relative growth inhibition (HCT116-MTAP−/−)
[16] = IC50 score, read-out: Tumor cell 5-day relative growth inhibition (HCT116-MTAP+/+) (nM), score
[17] = IC50 value, read-out: Tumor cell 5-day relative growth inhibition (HCT116-MTAP+/+)
[18] = Homo sapiens, HuT78, 120 h, IC50 score, read-out: Tumor cell 5-day relative growth inhibition (Hut-78) (nM), score
[19] = Homo sapiens, HuT78, 120 h, IC50 value, read-out: Tumor cell 5-day relative growth inhibition (Hut-78)

MAT2A recombinant protein, sequence (P31153 whole entry): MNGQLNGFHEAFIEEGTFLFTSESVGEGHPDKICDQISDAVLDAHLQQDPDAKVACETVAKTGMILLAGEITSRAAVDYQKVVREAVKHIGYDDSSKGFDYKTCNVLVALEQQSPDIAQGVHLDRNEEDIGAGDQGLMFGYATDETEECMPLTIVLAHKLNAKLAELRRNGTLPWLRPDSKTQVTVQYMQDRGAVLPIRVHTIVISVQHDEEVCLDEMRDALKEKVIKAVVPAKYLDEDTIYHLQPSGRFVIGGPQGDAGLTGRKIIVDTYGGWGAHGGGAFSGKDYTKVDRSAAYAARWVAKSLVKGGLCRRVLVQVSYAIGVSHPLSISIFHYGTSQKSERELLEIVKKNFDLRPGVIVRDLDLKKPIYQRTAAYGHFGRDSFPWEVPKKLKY

SMILES	IC50 [1, 7]	IC50 [1, 8]	IC50 [2, 9]	IC50 (DOHH-2 cell strain; [10])	IC50 (DOHH-2 cell strain; [11])	IC50 [2, 12]	IC50 [3, 13]	IC50 ([3]; read-out: MAT2A Inhibition)	also measured
CCn1cc2c(n1)c(=O)n(-c1cnccn1)c1cc(Cl)ccc21 [Compound B6]	> 3000 nM	3570 nM	200 to 1000 nM	≥ 2000 nM	16900 nM				
CCn1cc2c(n1)c(=O)n(-c1cccc(O)c1)c1cc(Cl)ccc21 [Compound B8]	200 to 1000 nM	271 nM	1000 to 3000 nM	500 to 2000 nM	1000 nM	2100 nM			
CCn1cc2c(n1)c(=O)n(-c1cccc(C#N)c1)c1cc(Cl)ccc21 [Compound B9]	200 to 1000 nM	328 nM	1000 to 3000 nM	500 to 2000 nM	1090 nM	2350 nM			
CCn1cc2c(n1)c(=O)n(-c1cncc(F)c1)c1cc(Cl)ccc21 [Compound B14]	1000 to 3000 nM		1000 to 3000 nM	≥ 2000 nM	6680 nM		< 100 nM	66.9 nM	
Cc1c2c(nn1C)c(=O)n(-c1cccnc1)c1cc(Cl)ccc21 [Compound B16]	< 200 nM	63.6 nM	200 to 1000 nM	500 to 2000 nM	811 nM	636 nM	< 100 nM	26.8 nM	
CCn1cc2c(n1)c(=O)n(Cc1c[nH]cn1)c1cc(Cl)ccc21 [Compound B18]	> 3000 nM	8410 nM		≥ 2000 nM	> 2000 nM		100 to 1000 nM	149 nM	
CCn1nc2c(=O)n(-c3cccnc3)c3cc(Cl)ccc3c2c1Cl [Compound B20]	200 to 1000 nM	521 nM	> 3000 nM	≥ 2000 nM	2360 nM	5150 nM	< 100 nM	37.2 nM	
Cn1nc2c(=O)n(-c3cccnc3)c3cc(Cl)ccc3c2c1C(F)F [Compound B27]	1000 to 3000 nM	1280 nM	> 3000 nM	≥ 2000 nM	11700 nM	> 3000 nM	< 100 nM	77 nM	
CCn1cc2c(n1)c(=O)n(-c1c(C)ccnc1C)c1cc(Cl)ccc21 [Compound B31]	< 200 nM	169 nM	200 to 1000 nM	≥ 2000 nM	8080 nM	971 nM	< 100 nM	65.3 nM	
O=c1c2nn(CCO)cc2c2ccc(Cl)cc2n1-c1cccnc1 [Compound B46]	200 to 1000 nM	236 nM	> 3000 nM	≥ 2000 nM	6030 nM	19400 nM			
Cn1cc2c(n1)c(=O)n(-c1cccnc1)c1cc(C3CC3)ccc21 [Compound B70]	200 to 1000 nM	375 nM	1000 to 3000 nM	500 to 2000 nM	1930 nM	1550 nM			
Cn1cc2c(n1)c(=O)n(-c1cccnc1)c1nc(C3CC3)ccc21 [Compound B71]	200 to 1000 nM	203 nM	1000 to 3000 nM	500 to 2000 nM	1290 nM	1270 nM			
Cc1c2c(nn1C)c(=O)n(-c1cccnc1)c1nc(C(F)(F)F)ccc21 [Compound B198]	< 200 nM	48.5 nM	200 to 1000 nM			567 nM	< 100 nM	17.1 nM	IC50 [4, 14]: < 500 nM; IC50 [4, 15]: 31.5 nM; IC50 [5, 16]: 500 to 2000 nM; IC50 [5, 17]: 745 nM; IC50 (Hut-78 cell strain; [18]): < 500 nM; IC50 (Hut-78 cell strain; [19]): 40.2 nM; AUC ([6]; IV 2 mg/kg): 8.7 µM·h; clearance ([6]; IV 2 mg/kg): 10.7 mL/min/kg; bioavailability ([6]; IV 2 mg/kg, PO 10 mg/kg): 150%; half-life ([6]; IV 2 mg/kg): 40.9 min; Vd ([6]; IV 2 mg/kg, read-out: Vz): 0.6 L/kg; AUC ([6]; PO 10 mg/kg): 65.2 µM·h; half-life ([6]; PO 10 mg/kg): 55.1 min
O=c1c2nn(CC3CC3)cc2c2ccc(C(F)(F)F)nc2n1-c1cccnc1 [Compound B199]	< 200 nM	184 nM	200 to 1000 nM			899 nM	< 100 nM	53.7 nM	IC50 [4, 14]: < 500 nM; IC50 [4, 15]: 181 nM; IC50 [5, 16]: ≥ 2000 nM; IC50 [5, 17]: 53800 nM; IC50 (Hut-78 cell strain; [18]): < 500 nM; IC50 (Hut-78 cell strain; [19]): 323 nM
O=c1c2nn(C3CC3)cc2c2ccc(C(F)(F)F)nc2n1-c1cccnc1 [Compound B215]	200 to 1000 nM	210 nM	1000 to 3000 nM			1180 nM	< 100 nM	21.7 nM	IC50 [4, 14]: < 500 nM; IC50 [4, 15]: 104 nM; IC50 [5, 16]: ≥ 2000 nM; IC50 [5, 17]: 4200 nM; IC50 (Hut-78 cell strain; [18]): < 500 nM; IC50 (Hut-78 cell strain; [19]): 310 nM
Cc1ncccc1-n1c(=O)c2nn(C)cc2c2ccc(Cl)cc21 [Compound B233]	< 200 nM	6.35 nM	200 to 1000 nM			250 nM	< 100 nM	13.4 nM	IC50 [4, 14]: < 500 nM; IC50 [4, 15]: 15.5 nM; IC50 [5, 16]: < 500 nM; IC50 [5, 17]: 135 nM; IC50 (Hut-78 cell strain; [18]): < 500 nM; IC50 (Hut-78 cell strain; IC50 value, read-out: Tumor cell 5-day relative growth inhibition (Hut-78)): 8.05 nM
